Experimental data reported in ChEMBL document CHEMBL1201862, “PubChem BioAssay data set” (2004).
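How tested: cells in 96-well plates exposed to compound for 48 hours at five concentrations. Here, GI50 denotes the concentration required for 50% inhibition of growth.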 Calls of active or inactive are those of the source. No stated cut-off is given here; in the data, active = GI50 up to about 1.1 µM and inactive = higher.

Experiments:
Assay in all cases: growth of human tumour cells (NCI), 48 h
[1] = test system: MDA-N
[2] = test system: BT-549
[3] = test system: DU-145
[4] = test system: MCF7
[5] = test system: OVCAR-8
[6] = test system: NCI-H23
[7] = test system: NCI-H522
[8] = test system: KM12
[9] = test system: HOP-62
[10] = test system: LOX IMVI
[11] = test system: K562
[12] = test system: SF-295
[13] = test system: MDA-MB-435
[14] = test system: 786-0
[15] = test system: SW-620
[16] = test system: RPMI-8226
[17] = test system: U-251
[18] = test system: TK-10
[19] = test system: NCI-H226
[20] = test system: MDA-MB-231
[21] = test system: OVCAR-3
[22] = test system: SNB-75
[23] = test system: CAKI-1
[24] = test system: IGROV-1
[25] = test system: MOLT-4
[26] = test system: M14
[27] = test system: NCI-H460
[28] = test system: HL-60
[29] = test system: T47D
[30] = test system: A549
[31] = test system: OVCAR-5
[32] = test system: PC-3
[33] = test system: CCRF-CEM
[34] = test system: SK-MEL-28
[35] = test system: OVCAR-4
[36] = test system: HCT-116
[37] = test system: SF-539
[38] = test system: SN12C
[39] = test system: SNB-19
[40] = test system: Hs-578T
[41] = test system: SF-268
[42] = test system: UACC-62
[43] = test system: NCI/ADR-RES
[44] = test system: COLO 205
[45] = test system: SK-MEL-5
[46] = test system: HCT-15
[47] = test system: UACC-257
[48] = test system: EKVX
[49] = test system: RXF 393
[50] = test system: SK-MEL-2
[51] = test system: A498
[52] = test system: ACHN
[53] = test system: HT-29
[54] = test system: SK-OV-3
[55] = test system: UO-31
[56] = test system: HOP-92
[57] = test system: Malme-3M
[58] = test system: HCC 2998

## CCOP(=O)(/C=C/n1ccc(N)nc1=O)OCC
[1]
  GI50: > 100 µM (inactive)
[2]
  GI50: > 100 µM (inactive)
[3]
  GI50: > 100 µM (inactive)
[4]
  GI50: > 100 µM (inactive)
[5]
  GI50: > 100 µM (inactive)
[6]
  GI50: > 100 µM (inactive)
[7]
  GI50: > 100 µM (inactive)
[8]
  GI50: > 100 µM (inactive)
[9]
  GI50: > 100 µM (inactive)
[10]
  GI50: > 100 µM (inactive)
[11]
  GI50: > 100 µM (inactive)
[12]
  GI50: > 100 µM (inactive)
[13]
  GI50: > 100 µM (inactive)
[14]
  GI50: > 100 µM (inactive)
[15]
  GI50: > 100 µM (inactive)
[16]
  GI50: > 100 µM (inactive)
[17]
  GI50: > 100 µM (inactive)
[18]
  GI50: > 100 µM (inactive)
[19]
  GI50: 97.9 µM (inactive)
[20]
  GI50: > 100 µM (inactive)
[21]
  GI50: > 100 µM (inactive)
[22]
  GI50: > 100 µM (inactive)
[23]
  GI50: > 100 µM (inactive)
[24]
  GI50: > 100 µM (inactive)
[25]
  GI50: > 100 µM (inactive)
[26]
  GI50: > 100 µM (inactive)
[27]
  GI50: > 100 µM (inactive)
[28]
  GI50: > 100 µM (inactive)
[29]
  GI50: > 100 µM (inactive)
[30]
  GI50: > 100 µM (inactive)
[31]
  GI50: > 100 µM (inactive)
[32]
  GI50: > 100 µM (inactive)
[33]
  GI50: > 100 µM (inactive)
[34]
  GI50: > 100 µM (inactive)
[35]
  GI50: > 100 µM (inactive)
[36]
  GI50: > 100 µM (inactive)
[37]
  GI50: > 100 µM (inactive)
[38]
  GI50: > 100 µM (inactive)
[39]
  GI50: > 100 µM (inactive)
[40]
  GI50: > 100 µM (inactive)
[41]
  GI50: > 100 µM (inactive)
[42]
  GI50: > 100 µM (inactive)
[43]
  GI50: > 100 µM (inactive)
[44]
  GI50: > 100 µM (inactive)
[45]
  GI50: > 100 µM (inactive)
[46]
  GI50: > 100 µM
[47]
  GI50: > 100 µM (inactive)
[48]
  GI50: > 100 µM (inactive)
[49]
  GI50: > 100 µM (inactive)
[50]
  GI50: > 100 µM (inactive)
[51]
  GI50: > 100 µM (inactive)
[52]
  GI50: > 100 µM (inactive)
[53]
  GI50: > 100 µM (inactive)
[54]
  GI50: > 100 µM (inactive)

## CC(=O)c1cccc(Nc2nc3ccccc3c3[nH]c4ccccc4c23)c1
[1]
  GI50: 4.73 µM (inactive)
[2]
  GI50: > 100 µM (inactive)
[3]
  GI50: 4.93 µM (inactive)
[4]
  GI50: 0.403 µM (active)
[5]
  GI50: 3.86 µM (inactive)
[6]
  GI50: 9.38 µM (inactive)
[7]
  GI50: 2.57 µM (inactive)
[8]
  GI50: 4.66 µM (inactive)
[55]
  GI50: 3.33 µM (inactive)
[9]
  GI50: 7.31 µM (inactive)
[11]
  GI50: 4.69 µM (inactive)
[12]
  GI50: 3.53 µM (inactive)
[13]
  GI50: 4.48 µM (inactive)
[14]
  GI50: 3.01 µM (inactive)
[15]
  GI50: 4.81 µM (inactive)
[16]
  GI50: 3.03 µM (inactive)
[17]
  GI50: 3.98 µM (inactive)
[18]
  GI50: 7.55 µM (inactive)
[20]
  GI50: 3.19 µM (inactive)
[21]
  GI50: 2.48 µM (inactive)
[23]
  GI50: 3.8 µM (inactive)
[24]
  GI50: 2.88 µM (inactive)
[26]
  GI50: 8.79 µM (inactive)
[27]
  GI50: 1.7 µM (inactive)
[29]
  GI50: 3.48 µM (inactive)
[30]
  GI50: 2.78 µM (inactive)
[31]
  GI50: 6.52 µM (inactive)
[32]
  GI50: 4.65 µM (inactive)
[56]
  GI50: 2.87 µM (inactive)
[33]
  GI50: 5.74 µM (inactive)
[36]
  GI50: 4.28 µM (inactive)
[37]
  GI50: 4 µM (inactive)
[38]
  GI50: 3.49 µM (inactive)
[39]
  GI50: 16.2 µM (inactive)
[40]
  GI50: 10.9 µM (inactive)
[41]
  GI50: 3.67 µM (inactive)
[42]
  GI50: 1.94 µM (inactive)
[43]
  GI50: 4.05 µM (inactive)
[44]
  GI50: 2.23 µM (inactive)
[46]
  GI50: 3.94 µM
[47]
  GI50: 9.04 µM (inactive)
[48]
  GI50: 3.05 µM (inactive)
[50]
  GI50: 3.75 µM (inactive)
[52]
  GI50: 3.63 µM (inactive)
[53]
  GI50: 4.02 µM (inactive)
[54]
  GI50: 5.42 µM (inactive)
[57]
  GI50: 3.61 µM (inactive)

## O=C(NNc1nc(-c2ccccc2)cs1)Nc1ccccc1
[58]
  GI50: 25.6 µM (inactive)
[1]
  GI50: 24.2 µM (inactive)
[2]
  GI50: 25.3 µM (inactive)
[3]
  GI50: 31.8 µM (inactive)
[4]
  GI50: 25.3 µM (inactive)
[5]
  GI50: 22.7 µM (inactive)
[6]
  GI50: 20.2 µM (inactive)
[8]
  GI50: 32.9 µM (inactive)
[55]
  GI50: 25.4 µM (inactive)
[9]
  GI50: 18.7 µM (inactive)
[11]
  GI50: 34.4 µM (inactive)
[12]
  GI50: 28.1 µM (inactive)
[13]
  GI50: 22.2 µM (inactive)
[14]
  GI50: 30.2 µM (inactive)
[15]
  GI50: 37.6 µM (inactive)
[16]
  GI50: 13.4 µM (inactive)
[17]
  GI50: 22.2 µM (inactive)
[18]
  GI50: 19.5 µM (inactive)
[19]
  GI50: 20.4 µM (inactive)
[20]
  GI50: 21.4 µM (inactive)
[21]
  GI50: 13.9 µM (inactive)
[22]
  GI50: 23.2 µM (inactive)
[23]
  GI50: 43.3 µM (inactive)
[24]
  GI50: 34.8 µM (inactive)
[25]
  GI50: 27.7 µM (inactive)
[26]
  GI50: 28.5 µM (inactive)
[27]
  GI50: 24 µM (inactive)
[29]
  GI50: 23.2 µM (inactive)
[30]
  GI50: 19.5 µM (inactive)
[31]
  GI50: 29.4 µM (inactive)
[32]
  GI50: 17.3 µM (inactive)
[33]
  GI50: 34.3 µM (inactive)
[34]
  GI50: 30.4 µM (inactive)
[35]
  GI50: 28.7 µM (inactive)
[36]
  GI50: 25.5 µM (inactive)
[38]
  GI50: 30.9 µM (inactive)
[39]
  GI50: 44.1 µM (inactive)
[40]
  GI50: 28.9 µM (inactive)
[41]
  GI50: 27.5 µM (inactive)
[42]
  GI50: 19.4 µM (inactive)
[43]
  GI50: 20.7 µM (inactive)
[44]
  GI50: 19.6 µM (inactive)
[45]
  GI50: 20.7 µM (inactive)
[46]
  GI50: 26.6 µM
[47]
  GI50: 20.7 µM (inactive)
[48]
  GI50: 32 µM (inactive)
[49]
  GI50: 6.14 µM (inactive)
[50]
  GI50: 16.1 µM (inactive)
[52]
  GI50: 37.5 µM (inactive)
[53]
  GI50: 29 µM (inactive)
[54]
  GI50: 22.6 µM (inactive)
[57]
  GI50: 39.5 µM (inactive)
